Source: patent US8815882B2, “Pyrazole aminopyrimidine derivatives as LRRK2 modulators” (Genentech, Inc., priority 2010, dated 2014)
pKi: −log10 of the molar value. Read-outs that look alike come from different tables or passages of the source.

Biological target: T1, LRRK2 (Homo sapiens, UniProt Q5S007, G2019S)
T1 construct: purchased Invitrogen PV4882 (lot 567054A)
Assay: In Vitro LRRK2 Assay (LabChip 3000, fluorescently-labeled peptide substrate, ATP)
Type: biochemical
Protocol: This assay was used to determine a compound's potency in inhibiting activity of LRRK2 by determining, Kiapp, IC50, or percent inhibition values. In a polypropylene plate, LRRK2, fluorescently-labeled peptide substrate, ATP and test compound were incubated together. Using a LabChip 3000 (Caliper Life Sciences), after the reaction the substrate was separated by capillary electrophoresis into two populations: phosphorylated and unphosphorylated. The relative amounts of each were quantitated by fluorescence intensity. LRRK2 Ki was determined according to the equation: Y=V0*(1−(x+Ki*(1+S/Km)+Et)/(2*Et)−(((x+Ki*(1+S/Km)+Et)^2−(4*Et*x))^0.5)/(2*Et))). Ki values in Table 4 and elsewhere herein are shown in μM.
Assay conditions and materials used were as follows:
Compound Plate Preparation:
For serial dilutions, 34.6 μl DMSO was added to columns 3-24.
Total and Blank Preparation:
In Complete Reaction Buffer, substrate was diluted to 4 μM. Equal volumes of Complete Reaction Buffer and 4 μM substrate were combined to obtain the blank. Equal volumes of Complete Reaction Buffer and 4 μM substrate were combined and to the combined solution was added 2× final LRRK2 concentration.
To a 50 μl polypropylene plate, 5 μl/well buffer/substrate was added by hand to Blank wells. A Biomek FX was used to start the kinase reaction (“PLK SAR 23 ATP”). The following were added to the appropriate wells:
5 μl/well compound/ATP in Assay Plate;
5 μl/well kinase/substrate in Assay Plate;
The plate was incubated for 2 hours in the dark. Biomek FX was used to stop the kinase reaction (“PLK Stop”), and 10 μl/well Stop solution was added to the Assay Plate. Results were read on the LabChip 3000.
The LabChip 3000 was run using the job “LRRK2 IC50” with the following job settings: […]

[1] = read-out: LRRK2 Ki (KI), Table 8
[2] = read-out: LRRK2 Ki (KI), Table 7

T1 sequence (Q5S007 whole entry G2019S): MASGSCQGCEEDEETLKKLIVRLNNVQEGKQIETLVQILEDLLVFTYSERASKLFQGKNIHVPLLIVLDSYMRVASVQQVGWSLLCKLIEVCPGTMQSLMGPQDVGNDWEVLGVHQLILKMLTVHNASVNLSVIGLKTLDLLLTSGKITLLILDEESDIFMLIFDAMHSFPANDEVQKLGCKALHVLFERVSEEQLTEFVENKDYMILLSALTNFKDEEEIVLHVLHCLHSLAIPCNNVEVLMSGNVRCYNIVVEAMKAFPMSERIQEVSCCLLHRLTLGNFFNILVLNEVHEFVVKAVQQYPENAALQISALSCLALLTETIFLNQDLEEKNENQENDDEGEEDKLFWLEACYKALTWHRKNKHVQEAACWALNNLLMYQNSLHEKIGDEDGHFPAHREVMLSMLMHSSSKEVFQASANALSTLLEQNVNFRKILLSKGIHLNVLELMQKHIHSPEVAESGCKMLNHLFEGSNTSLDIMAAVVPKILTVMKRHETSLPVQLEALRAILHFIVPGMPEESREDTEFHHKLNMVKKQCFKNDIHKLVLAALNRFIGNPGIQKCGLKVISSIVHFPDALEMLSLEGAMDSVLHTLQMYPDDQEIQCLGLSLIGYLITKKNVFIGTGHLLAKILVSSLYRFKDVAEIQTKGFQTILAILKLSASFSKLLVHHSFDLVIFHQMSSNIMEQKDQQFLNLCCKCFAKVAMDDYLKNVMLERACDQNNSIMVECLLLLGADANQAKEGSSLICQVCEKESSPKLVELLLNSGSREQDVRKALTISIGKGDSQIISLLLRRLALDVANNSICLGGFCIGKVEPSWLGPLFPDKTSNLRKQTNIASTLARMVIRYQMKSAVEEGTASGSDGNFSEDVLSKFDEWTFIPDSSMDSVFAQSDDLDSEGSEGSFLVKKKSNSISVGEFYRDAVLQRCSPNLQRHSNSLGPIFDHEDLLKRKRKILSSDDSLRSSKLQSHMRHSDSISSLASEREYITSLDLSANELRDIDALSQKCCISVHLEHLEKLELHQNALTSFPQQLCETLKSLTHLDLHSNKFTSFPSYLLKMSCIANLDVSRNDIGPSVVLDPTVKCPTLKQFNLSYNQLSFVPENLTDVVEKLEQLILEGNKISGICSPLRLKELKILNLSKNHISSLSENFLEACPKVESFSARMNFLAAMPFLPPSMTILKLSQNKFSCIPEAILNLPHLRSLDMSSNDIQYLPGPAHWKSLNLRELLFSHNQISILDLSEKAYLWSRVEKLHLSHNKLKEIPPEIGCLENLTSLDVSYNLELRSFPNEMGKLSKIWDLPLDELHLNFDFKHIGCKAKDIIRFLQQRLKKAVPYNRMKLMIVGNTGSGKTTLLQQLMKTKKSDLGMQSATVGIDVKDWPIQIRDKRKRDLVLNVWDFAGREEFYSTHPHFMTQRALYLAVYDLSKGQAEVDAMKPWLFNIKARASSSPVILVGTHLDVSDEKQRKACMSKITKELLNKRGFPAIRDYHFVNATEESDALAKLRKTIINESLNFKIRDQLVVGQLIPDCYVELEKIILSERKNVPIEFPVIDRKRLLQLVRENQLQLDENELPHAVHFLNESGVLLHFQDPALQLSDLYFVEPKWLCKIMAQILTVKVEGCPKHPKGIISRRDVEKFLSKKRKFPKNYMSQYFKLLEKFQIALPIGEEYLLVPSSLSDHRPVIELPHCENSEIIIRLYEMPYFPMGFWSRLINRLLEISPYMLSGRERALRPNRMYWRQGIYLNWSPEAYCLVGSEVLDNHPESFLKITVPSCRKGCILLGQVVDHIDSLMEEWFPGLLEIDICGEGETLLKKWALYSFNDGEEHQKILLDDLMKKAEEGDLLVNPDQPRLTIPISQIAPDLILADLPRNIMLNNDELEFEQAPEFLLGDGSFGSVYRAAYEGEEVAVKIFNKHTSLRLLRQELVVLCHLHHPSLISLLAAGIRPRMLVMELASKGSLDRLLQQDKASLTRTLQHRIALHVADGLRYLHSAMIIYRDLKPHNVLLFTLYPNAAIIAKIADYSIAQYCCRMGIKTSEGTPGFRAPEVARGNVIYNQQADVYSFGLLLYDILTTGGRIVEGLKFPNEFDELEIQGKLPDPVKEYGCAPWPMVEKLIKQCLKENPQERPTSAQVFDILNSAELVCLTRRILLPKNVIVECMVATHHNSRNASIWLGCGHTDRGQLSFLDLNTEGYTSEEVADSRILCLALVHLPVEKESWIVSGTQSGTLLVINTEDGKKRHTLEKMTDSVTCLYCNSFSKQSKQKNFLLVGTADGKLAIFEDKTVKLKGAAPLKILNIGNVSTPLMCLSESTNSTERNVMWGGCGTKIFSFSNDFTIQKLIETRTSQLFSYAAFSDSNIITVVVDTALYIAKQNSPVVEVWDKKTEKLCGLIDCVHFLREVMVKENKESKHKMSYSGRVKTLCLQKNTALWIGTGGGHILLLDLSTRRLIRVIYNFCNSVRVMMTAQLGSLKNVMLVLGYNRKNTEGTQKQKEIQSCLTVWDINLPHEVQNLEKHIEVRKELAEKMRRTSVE

SMILES: CNc1nc(Nc2cn([C@@H](C)COC)nc2C)ncc1C(F)(F)F [Example 275, N2-[1-((S)-2-Methoxy-1-methyl-ethyl)-3-methyl-1H-pyrazol-4-yl]-N4-methyl-5-trifluoromethyl-pyrimidine-2,4-diamine]
- pKi [1]: 8.05

SMILES: CCNc1nc(Nc2cn(C3CCOCC3)nc2C)ncc1C#N [Example 372, 4-(ethylamino)-2-(3-methyl-1-(tetrahydro-2H-pyran-4-yl)-1H-pyrazol-4-ylamino) pyrimidine-5-carbonitrile]
- pKi (Table 9, LRRK2 Ki (micromolar), read-out: LRRK2 Ki (KI)): 7.62

SMILES: CCNc1nc(Nc2ccn(CC)n2)ncc1C(F)(F)F [Example 186, N4-ethyl-N2-(1-ethyl-1H-pyrazol-3-yl)-5-(trifluoromethyl) pyrimidine-2,4-diamine]
- pKi [1]: 8.72

SMILES: CCNc1nc(Nc2cnn(-c3ccc(C#N)cc3)c2C)ncc1C(F)(F)F [Example 162, 4-(4-(4-(ethylamino)-5-(trifluoromethyl)pyrimidin-2-ylamino)-5-methyl-1H-pyrazol-1-yl)benzonitrile]
- pKi [1]: 9.52

SMILES: COc1nc(Nc2cnn(C)c2Cl)ncc1Cl [Example 21, 5-Chloro-N-(5-chloro-1-methyl-1H-pyrazol-4-yl)-4-methoxy-pyrimidin-2-amine]
- pKi [2]: 7.70

SMILES: CCNc1nc(Nc2cn(S(=O)(=O)CC)nc2C)ncc1C(F)(F)F [Example 243, N4-ethyl-N2-(1-(ethylsulfonyl)-3-methyl-1H-pyrazol-4-yl)-5-(trifluoromethyl) pyrimidine-2,4-diamine]
- pKi [1]: 9.30

SMILES: CNc1nc(Nc2cn(C(C)C)nc2C)ncc1Br [Example 121, 5-bromo-N2-(1-isopropyl-3-methyl-1H-pyrazol-4-yl)-N4-methylpyrimidine-2,4-diamine]
- pKi [1]: 8.51

SMILES: CNc1nc(Nc2cn(Cc3cnccn3)nc2C)ncc1C(F)(F)F [Example 317, N4-Methyl-N2-(3-methyl-1-pyrazin-2-ylmethyl-1H-pyrazol-4-yl)-5-trifluoromethyl-pyrimidine-2,4-diamine]
- pKi [1]: 8.92

SMILES: CNc1nc(Nc2cn(C(C)(C)c3ccnn3C)nc2C)ncc1C(F)(F)F [Example 344, N4-methyl-N2-(3-methyl-1-(2-(1-methyl-1H-pyrazol-5-yl)propan-2-yl)-1H-pyrazol-4-yl)-5-(trifluoromethyl) pyrimidine-2,4-diamine]
- pKi [1]: 8.85

SMILES: CNc1nc(Nc2cn(C)nc2C(C)C)ncc1C(F)(F)F [Example 227, N2-(3-isopropyl-1-methyl-1H-pyrazol-4-yl)-N4-methyl-5-(trifluoromethyl) pyrimidine-2,4-diamine]
- pKi [1]: 7.16

SMILES: CNc1nc(Nc2cn([C@@H]3CCN(C)C3)nc2C)ncc1C(F)(F)F [Example 233, (R)-N4-methyl-N2-(3-methyl-1-(1-methylpyrrolidin-3-yl)-1H-pyrazol-4-yl)-5-(trifluoromethyl) pyrimidine-2,4-diamine]
- pKi [1]: 7.21

SMILES: CNc1nc(Nc2cnn(C3CC3)c2Cl)ncc1C(F)(F)F [Example 145, N2-(5-chloro-1-cyclopropyl-1H-pyrazol-4-yl)-N4-methyl-5-(trifluoromethyl) pyrimidine-2,4-diamine]
- pKi [1]: 8.77

SMILES: CNc1nc(Nc2cnn(C(C)c3ccccn3)c2C)ncc1C(F)(F)F (stereo not shown) [Example 225, N4-methyl-N2-(5-methyl-1-(1-(pyridin-2-yl)ethyl)-1H-pyrazol-4-yl)-5-(trifluoromethyl) pyrimidine-2,4-diamine]
- pKi [1]: 8.42

SMILES: CNc1nc(Nc2cnn(C3CCCC3O)c2C)ncc1C(F)(F)F (stereo not shown) [Example 334, 2-[5-Methyl-4-(4-methylamino-5-trifluoromethyl-pyrimidin-2-ylamino)-pyrazol-1-yl]-cyclopentanol]
- pKi [1]: 8.20

SMILES: CNc1nc(Nc2cn(CCF)nc2C)ncc1C(F)(F)F [Example 130, N2-(1-(2-fluoroethyl)-3-methyl-1H-pyrazol-4-yl)-N4-methyl-5-(trifluoromethyl) pyrimidine-2,4-diamine]
- pKi [1]: 8.96

SMILES: COc1nc(Nc2cnn(C3CCN(C(=O)C4(C)CC4)CC3)c2C)ncc1Cl [Example 67, (4-(4-(5-chloro-4-methoxy-pyrimidin-2-ylamino)-5-methyl-1H-pyrazol-1-yl)piperidin-1-yl)(1-methylcyclo-propyl) methanone]
- pKi [2]: 7.05
